Earlier results as cited in patent US20220280449A1, “CURCUMINOID COMPOSITIONS” (priority 2018, published 2022).

System: Caco-2 cells

Compound: COc1cc(/C=C/C(=O)CC(=O)/C=C/c2ccc(O)c(OC)c2)ccc1O [curcumin]
- predicted absorption in humans (from correlation of Caco-2 Papp with human absorption): 0-20%
- apparent permeability coefficient (Papp value) (in vitro human intestinal cell model (Caco-2)): 0.1 ×10⁻⁶ cm/s
